The test system of the assay is red blood cells (5% RBC suspension). Description: Test Example 2-1: in vitro hemolytic activity test (upper limit 50, 80, 100 or 200 μmol/L). The class given is cell-based. To be noted: 5% RBC suspension, 37° C., one hour, read-out: hemolysis IC50. As for the experimental part: Nephrotoxic potentials of the compounds of the present invention except the compounds whose X is —N(R^F)—CO—X^1 and X^1 is the group represented by formula (III) and T is —N(R^a5)— were investigated by in vitro hemolytic activity test under the condition, in that, the upper limit was 50 μmol/L, 80 μmol/L, 100 μmol/L, or 200 μmol/L as the required concentration to 50% of hemolysis (IC50).
Defibrinated sterile blood was centrifuged at 700×g for 3 minutes and, and the supernatant was removed for 100% of red blood cells. After the cleaning with physiological saline, the washed blood cells was suspended in the medium (Earle's balanced salt sodium, bicarbonate, 0.1 g/L L-glutamine without phenol red), and was diluted by 5% (5% RBC suspension).
The washed blood was diluted by 5% in water for injection (solution of complete hemolysis), and was used as the indication of optical density for complete hemolysis.
The compounds of the present invention solution in DMSO (several and doubling dilutions starting from 2.5 mmol/L, 4 mmol/L, 5 mmol/L, or 10 mmol/L), DMSO as the negative control, and Amphotericin B as the positive control were used, and each 5 μL of these was added in to a well of V-form 96 well type microplate.
Finally, the maximum concentration of the compounds of the present invention solution in DMSO was 50 μmol/L, 80 μmol/L, 100 μmol/L, or 200 μmol/L by adding 245 μL of the medium or 5% RBC suspension into the well.
Two hundred fifty μL of the solution of complete hemolysis was added into another well and the microplate was incubated at 37° C. in 5% of CO2 concentration for an hour.
After the incubation, each 100 μL of supernatants in wells was collected by centrifugation of the microplate at 300×g for 5 minutes and was located on a well of flat-form 96 well type microplate. An absorbance of each supernatant was measured at wavelength of 540 nm.
Percent hemolysis was calculated by using the followed equation. The required concentration to 50% of hemolysis (IC50) was calculated based on the percent hemolysis. […] Hemolysis (%)=(CR−VM)×100÷(VL−VR) Where:
CR: Absorbance of 5% RBC suspension incubated with the compounds of the present invention solution in DMSO
VM: Absorbance of medium incubated with the compounds of the present invention solution in DMSO
VL: Absorbance of solution of complete hemolysis
VR: Absorbance of 5% RBC suspension incubated with DMSO
The “hemolysis method” in the table means any tests the upper concentration of above IC50 are 50 μmol/L, 80 μmol/L, 100 μmol/L or 200 μmol/L. The “>50”, “>80”, “>100” or “>200” in the table means above IC50 value exceeded the each upper concentration.

[1] abbreviates: hemolysis method 80 (upper concentration 80 μmol/L).
Where [2] appears, read: hemolysis method 100 (upper concentration 100 μmol/L).
[3] abbreviates: hemolysis method 50 (upper concentration 50 μmol/L).

Structures are written as SMILES. pIC50: −log10 of the molar value. Read-outs that look alike come from different tables or passages of the source.

As a reminder, the pIC50 is the negative decadic logarithm of the IC50, by convention in mol/L. For the molecule `C[C@@H]1[C@H](O)[C@@H](C)/C=C/C=C/C=C/C=C/C=C/C=C/C=C/[C@H](O[C@@H]2O[C@H](C)[C@@H](O)[C@H](N)[C@@H]2O)C[C@@H]2O[C@](O)(C[C@@H](O)C[C@@H](O)[C@H](O)CC[C@@H](O)C[C@@H](O)CC(=O)O[C@H]1C)C[C@H](O)[C@H]2NC(=O)N1CCC(N(C)C)C1` (single isomer, unassigned) [I-49], the negative-log IC50 (pIC50) under setting [1] is under 4.10.

With `C[C@@H]1[C@H](O)[C@@H](C)/C=C/C=C/C=C/C=C/C=C/C=C/C=C/[C@H](O[C@@H]2O[C@H](C)[C@@H](O)[C@H](N)[C@@H]2O)C[C@@H]2O[C@](O)(C[C@@H](O)C[C@@H](O)[C@H](O)CC[C@@H](O)C[C@@H](O)CC(=O)O[C@H]1C)C[C@H](O)[C@H]2NC(=O)N1CCC(N(C)C)C1` (single isomer, unassigned) [I-50], the pIC50 under setting [1] was under 4.10.

Consider `C[C@@H]1[C@H](O)[C@@H](C)/C=C/C=C/C=C/C=C/C=C/C=C/C=C/[C@H](O[C@@H]2O[C@H](C)[C@@H](O)[C@H](N)[C@@H]2O)C[C@@H]2O[C@](O)(C[C@@H](O)C[C@@H](O)[C@H](O)CC[C@@H](O)C[C@@H](O)CC(=O)O[C@H]1C)C[C@H](O)[C@H]2NC(=O)NCCc1c[nH]cn1` [I-5], for which the negative logarithm of the IC50 (pIC50) (Erythrocyte, 1 h, hemolysis method 100 (upper concentration 100 μmol/L)) was 4.03.

Consider `C[C@@H]1[C@H](O)[C@@H](C)/C=C/C=C/C=C/C=C/C=C/C=C/C=C/[C@H](O[C@@H]2O[C@H](C)[C@@H](O)[C@H](N)[C@@H]2O)C[C@@H]2O[C@](O)(C[C@@H](O)C[C@@H](O)[C@H](O)CC[C@@H](O)C[C@@H](O)CC(=O)O[C@H]1C)C[C@H](O)[C@H]2NC(=O)NC(CO)Cc1c[nH]cn1` (stereo partly drawn) [I-6], for which the negative-log IC50 (pIC50) under setting [2] was 4.12.

Turning to `C[C@@H]1[C@H](O)[C@@H](C)/C=C/C=C/C=C/C=C/C=C/C=C/C=C/[C@H](O[C@@H]2O[C@H](C)[C@@H](O)[C@H](N)[C@@H]2O)C[C@@H]2O[C@](O)(C[C@@H](O)C[C@@H](O)[C@H](O)CC[C@@H](O)C[C@@H](O)CC(=O)O[C@H]1C)C[C@H](O)[C@H]2NC(=O)NCCCN(C)C` [I-7], the pIC50 under setting [2] was 4.09.

As for `C[C@@H]1[C@H](O)[C@@H](C)/C=C/C=C/C=C/C=C/C=C/C=C/C=C/[C@H](O[C@@H]2O[C@H](C)[C@@H](O)[C@H](N)[C@@H]2O)C[C@@H]2O[C@](O)(C[C@@H](O)C[C@@H](O)[C@H](O)CC[C@@H](O)C[C@@H](O)CC(=O)O[C@H]1C)C[C@H](O)[C@H]2NC(=O)NCCCN1CCOCC1` [I-8], the negative logarithm of the IC50 (pIC50) under setting [2] was 4.02.

Turning to `C[C@@H]1[C@H](O)[C@@H](C)/C=C/C=C/C=C/C=C/C=C/C=C/C=C/[C@H](O[C@@H]2O[C@H](C)[C@@H](O)[C@H](N)[C@@H]2O)C[C@@H]2O[C@](O)(C[C@@H](O)C[C@@H](O)[C@H](O)CC[C@@H](O)C[C@@H](O)CC(=O)O[C@H]1C)C[C@H](O)[C@H]2NC(=O)NCCn1cncn1` [I-9], the pIC50 under setting [2] was under 4.00.

Take `C[C@@H]1[C@H](O)[C@@H](C)/C=C/C=C/C=C/C=C/C=C/C=C/C=C/[C@H](O[C@@H]2O[C@H](C)[C@@H](O)[C@H](N)[C@@H]2O)C[C@@H]2O[C@](O)(C[C@@H](O)C[C@@H](O)[C@H](O)CC[C@@H](O)C[C@@H](O)CC(=O)O[C@H]1C)C[C@H](O)[C@H]2NC(=O)N(C)C` [I-10]: the negative logarithm of the IC50 (pIC50) under setting [2] is under 4.00.

For `C[C@@H]1[C@H](O)[C@@H](C)/C=C/C=C/C=C/C=C/C=C/C=C/C=C/[C@H](O[C@@H]2O[C@H](C)[C@@H](O)[C@H](N)[C@@H]2O)C[C@@H]2O[C@](O)(C[C@@H](O)C[C@@H](O)[C@H](O)CC[C@@H](O)C[C@@H](O)CC(=O)O[C@H]1C)C[C@H](O)[C@H]2NC(=O)NCCOCCOCCO` [I-11], under setting [3], the negative logarithm of the IC50 (pIC50) was under 4.30.

On to `C[C@@H]1[C@H](O)[C@@H](C)/C=C/C=C/C=C/C=C/C=C/C=C/C=C/[C@H](O[C@@H]2O[C@H](C)[C@@H](O)[C@H](N)[C@@H]2O)C[C@@H]2O[C@](O)(C[C@@H](O)C[C@@H](O)[C@H](O)CC[C@@H](O)C[C@@H](O)CC(=O)O[C@H]1C)C[C@H](O)[C@H]2NC(=O)NCCc1ccccn1` [I-15], for which the negative logarithm of the IC50 (pIC50) under setting [1] was under 4.10.

`C[C@@H]1[C@H](O)[C@@H](C)/C=C/C=C/C=C/C=C/C=C/C=C/C=C/[C@H](O[C@@H]2O[C@H](C)[C@@H](O)[C@H](N)[C@@H]2O)C[C@@H]2O[C@](O)(C[C@@H](O)C[C@@H](O)[C@H](O)CC[C@@H](O)C[C@@H](O)CC(=O)O[C@H]1C)C[C@H](O)[C@H]2NC(=O)N1CCN(c2ccccc2)CC1` [I-17]: under setting [1], the pIC50 was under 4.10.

In the case of `C[C@@H]1[C@H](O)[C@@H](C)/C=C/C=C/C=C/C=C/C=C/C=C/C=C/[C@H](O[C@@H]2O[C@H](C)[C@@H](O)[C@H](N)[C@@H]2O)C[C@@H]2O[C@](O)(C[C@@H](O)C[C@@H](O)[C@H](O)CC[C@@H](O)C[C@@H](O)CC(=O)O[C@H]1C)C[C@H](O)[C@H]2NC(=O)N1CCOCCOCCOCCOCCOCC1` [I-18], the negative-log IC50 (pIC50) under setting [1] was under 4.10.

For `C[C@@H]1[C@H](O)[C@@H](C)/C=C/C=C/C=C/C=C/C=C/C=C/C=C/[C@H](O[C@@H]2O[C@H](C)[C@@H](O)[C@H](N)[C@@H]2O)C[C@@H]2O[C@](O)(C[C@@H](O)C[C@@H](O)[C@H](O)CC[C@@H](O)C[C@@H](O)CC(=O)O[C@H]1C)C[C@H](O)[C@H]2NC(=O)NCC(F)(F)F` [I-21], the pIC50 under setting [1] was under 4.10.

As to `C[C@@H]1[C@H](O)[C@@H](C)/C=C/C=C/C=C/C=C/C=C/C=C/C=C/[C@H](O[C@@H]2O[C@H](C)[C@@H](O)[C@H](N)[C@@H]2O)C[C@@H]2O[C@](O)(C[C@@H](O)C[C@@H](O)[C@H](O)CC[C@@H](O)C[C@@H](O)CC(=O)O[C@H]1C)C[C@H](O)[C@H]2NC(=O)N1CCCCC1c1ccccc1` (stereo partly drawn) [I-22], under setting [1], the negative-log IC50 (pIC50) is under 4.10.

Take `C[C@@H]1[C@H](O)[C@@H](C)/C=C/C=C/C=C/C=C/C=C/C=C/C=C/[C@H](O[C@@H]2O[C@H](C)[C@@H](O)[C@H](N)[C@@H]2O)C[C@@H]2O[C@](O)(C[C@@H](O)C[C@@H](O)[C@H](O)CC[C@@H](O)C[C@@H](O)CC(=O)O[C@H]1C)C[C@H](O)[C@H]2NC(=O)N1CCCN(CCCN2CCOCC2)CC1` [I-23]: the negative logarithm of the IC50 (pIC50) under setting [1] is 4.10.

In the case of `C[C@@H]1[C@H](O)[C@@H](C)/C=C/C=C/C=C/C=C/C=C/C=C/C=C/[C@H](O[C@@H]2O[C@H](C)[C@@H](O)[C@H](N)[C@@H]2O)C[C@@H]2O[C@](O)(C[C@@H](O)C[C@@H](O)[C@H](O)CC[C@@H](O)C[C@@H](O)CC(=O)O[C@H]1C)C[C@H](O)[C@H]2NC(=O)N1CCN(CCCOc2ccccc2)CC1` [I-24], the negative-log IC50 (pIC50) under setting [1] is under 4.10.

As to `C[C@@H]1[C@H](O)[C@@H](C)/C=C/C=C/C=C/C=C/C=C/C=C/C=C/[C@H](O[C@@H]2O[C@H](C)[C@@H](O)[C@H](N)[C@@H]2O)C[C@@H]2O[C@](O)(C[C@@H](O)C[C@@H](O)[C@H](O)CC[C@@H](O)C[C@@H](O)CC(=O)O[C@H]1C)C[C@H](O)[C@H]2NC(=O)NCCCC(=O)O` [I-38], under setting [3], the pIC50 is under 4.30.

For `C[C@@H]1[C@H](O)[C@@H](C)/C=C/C=C/C=C/C=C/C=C/C=C/C=C/[C@H](O[C@@H]2O[C@H](C)[C@@H](O)[C@H](N)[C@@H]2O)C[C@@H]2O[C@](O)(C[C@@H](O)C[C@@H](O)[C@H](O)CC[C@@H](O)C[C@@H](O)CC(=O)O[C@H]1C)C[C@H](O)[C@H]2NC(=O)N(CCO)CCO` [I-39], the negative logarithm of the IC50 (pIC50) under setting [1] was under 4.10.

For the molecule `C[C@@H]1[C@H](O)[C@@H](C)/C=C/C=C/C=C/C=C/C=C/C=C/C=C/[C@H](O[C@@H]2O[C@H](C)[C@@H](O)[C@H](N)[C@@H]2O)C[C@@H]2O[C@](O)(C[C@@H](O)C[C@@H](O)[C@H](O)CC[C@@H](O)C[C@@H](O)CC(=O)O[C@H]1C)C[C@H](O)[C@H]2NC(=O)NC1CC1` [I-41], the negative-log IC50 (pIC50) (Erythrocyte, 1 h, hemolysis method 50 (upper concentration 50 μmol/L)) was under 4.30.

As for `C[C@@H]1[C@H](O)[C@@H](C)/C=C/C=C/C=C/C=C/C=C/C=C/C=C/[C@H](O[C@@H]2O[C@H](C)[C@@H](O)[C@H](N)[C@@H]2O)C[C@@H]2O[C@](O)(C[C@@H](O)C[C@@H](O)[C@H](O)CC[C@@H](O)C[C@@H](O)CC(=O)O[C@H]1C)C[C@H](O)[C@H]2NC(=O)NC1CCN(C)CC1` [I-48], the pIC50 under setting [1] is under 4.10.

Turning to `C[C@@H]1[C@H](O)[C@@H](C)/C=C/C=C/C=C/C=C/C=C/C=C/C=C/[C@H](O[C@@H]2O[C@H](C)[C@@H](O)[C@H](N)[C@@H]2O)C[C@@H]2O[C@](O)(C[C@@H](O)C[C@@H](O)[C@H](O)CC[C@@H](O)C[C@@H](O)CC(=O)O[C@H]1C)C[C@H](O)[C@H]2NC(=O)NCCN(C)C` [I-51], the negative logarithm of the IC50 (pIC50) under setting [1] is under 4.10.

(Values after patent US10696707B2, “Polyene macrolide derivative” (Shionogi & Co., Ltd., priority 2014, dated 2020).)
